Among the data in BindingDB's records for PubMed 35123298 (Comsats University Islamabad, 2022) are EC50 values, retold here.

Assay [1] is described as follows: Negative allosteric modulation activity at human P2X4 receptor expressed in human 1321N1 cells assessed as ATP induced calcium response by measuring ATP EC50 at 40 nM.
A short description of assay [2]: Negative allosteric modulation activity at human P2X4 receptor expressed in human 1321N1 cells assessed as ATP induced calcium response by measuring ATP EC50 at 200 nM.
A short description of assay [3]: Negative allosteric modulation activity at human P2X4 receptor expressed in human 1321N1 cells assessed as ATP induced calcium response by measuring ATP EC50 at 100 nM.
Assay [4] can be described thus: Negative allosteric modulation activity at human P2X7 receptor expressed in human 1321N1 cells assessed as ATP induced calcium response by measuring ATP EC50 at 100 nM.
The nature of assay [5]: Negative allosteric modulation activity at human P2X7 receptor expressed in human 1321N1 cells assessed as ATP induced calcium response by measuring ATP EC50 at 40 nM.
Assay [6] in a line: Negative allosteric modulation activity at human P2X7 receptor expressed in human 1321N1 cells assessed as ATP induced calcium response by measuring ATP EC50 at 200 nM.

SMILES strings stand for the structures.

Broadly, the EC50 is the concentration that produces a half-maximal response.

Regarding `CC(C)c1ccc(NC(=S)NC(=O)C23CC4CC(CC(C4)C2)C3)c(Br)c1`, the EC50 came out at 10.1 µM in assay [1], 12.2 µM in assay [2] and 8.96 µM in assay [3].

As to `O=C(NC(=S)Nc1cccc2cccnc12)C12CC3CC(CC(C3)C1)C2`, the EC50 in assay [4] was found to be 6.08 µM; in assay [5], 6.62 µM; in assay [6], 2.19 µM.
